In patent publication US20090269281A1, “Calcium/Calmodulin-Dependent Protein Kinase Kinase as a Control Point for Cardiac Hypertrophy” (University of North Texas Health Science Center at Fort …, priority 2007, published 2009):
pIC50: −log10 of the molar value. Entries after “also recorded” stand apart in the source; their conditions may differ.

Experiments:
UIIR = UIIR expression in cardiomyocytes treated with hypertrophic agonists (RT-PCR, western blot); format: cell-based, rat; conditions: for UIIR mRNA expression: 10 μM PE or 100 nM AngII for 24 hours, RT-PCR; for UIIR protein expression: PE or AngII, western blot
Protocol: Cardiomyocytes were cultured in medium containing 0.2% FBS and either PE (10 μM) or AngII (100 nM) for 48 hours. Total RNA was isolated and reverse transcribed. cDNA was used as template to amplify UIIR. […] Cardiomyocytes were cultured in medium containing 0.2% FBS and either PE (10 μM) or AngII (100 nM) for 48 hours. Total protein was isolated and UIIR detected by western blot.
Expression of UIIR in myocytes treated with hypertrophic agonists. In order to validate the array data, we designed PCR primers to amplify UIIR. Cardiomyocyte cultures were treated with 10 μM PE or 100 nM AngII for 24 hours and total RNA was extracted following the Trizol protocol (Invitrogen). Total RNA was then used for template for reverse transcription. The cDNA generated from the RT reaction was then used as template to amplify UIIR and GAPDH as control.
To this end, we stimulated cardiomyocyte cultures with AngII and PE as before and isolated total protein. The total protein was resolved by PAGE (12% acrylamide), transferred to nitrocellulose, and blotted for UIIR using a specific antibody.

[1] = test system: HDAC5/14-3-3β association; assay: Immunoprecipitation of 14-3-3β and detection of bound HDAC5 in cardiomyocytes; format: cell-based, rat; conditions: AdUIIR-infected cardiomyocytes; inhibitor 1 h prior to UII, 60 min
Protocol: (§1) Cell Culture and Treatments. […] Plasmids and Adenoviral Constructs.
For immunoprecipitation studies, Cardiomyocytes were cultured in 100-mm as described in the previous section. 24 h post-plating, cells were treated with UII and various pharmacological inhibitors as indictated. Following treatment, 14-3-3β was immunoprecipitated from whole cell lysate using a commercially available antibody (Abcam) and a protein G immunoprecipitation kit (IP50 Kit, Sigma, following manufacturer's protocol). HDAC5 was detected using a commercially-available antibody (Cell Signaling Technologies, Inc.).
UII stimulation induces association of HDAC5 with 14-3-3β in a CaMKK dependent manner. The activity of MEF2 is controlled, in part, by its association with class II HDACs in the nucleus. Class II HDACs repress the activity of MEF2-sensitive promoters by local deacetylation of nucleosomal histones causing the condensation of chromatin. The repressive influence of HDACs on MEF2 can be relieved by CaMK-dependent phosphorylation of HDACs, which results in their dissociation from MEF2. The dissociation of HDACs from MEF2 is accompanied by 14-3-3-mediated nuclear export of the HDACs. We have shown that UII stimulates the activity of MEF2. Next, to determine whether UII stimulates HDAC5 association with 14-3-3β, AdUIIR-infected cardiomyocytes were treated with UII for various times up to 60 min, and 14-3-3β was pulled down from the whole cell lysate by using an antibody specific for 14-3-3β and protein G agarose. HDAC5 was detected using a specific antibody.

[2] = test system: ANF, SkA and MEF2 reporters; conditions: cardiomyocytes co-transfected with CaMKI; SB203580 10 μM or U0126 10 μM
Protocol: Cell Culture and Treatments. Cardiomyocytes were isolated from 2-4 day old Sprague-Dawley rats using the neonatal cardiomyocyte isolation system (Worthington Biolabs) based on a previously described protocol (45). Cells were plated in medium 199 supplemented with 10% fetal bovine serum (FBS, Atlanta Biologicals) and gentamycin (Fisher). Cells were maintained in medium 199 supplemented with 1.0% FBS and gentamycin. Prior to any treatment, cardiomyocyte cultures were incubated in medium 199 containing 0.2% serum for 24 hours. […] Cells were incubated in medium 199 containing 0.2% FBS prior to stimulation with the indicated reagents for reporter assays, RT-PCR, western blotting and immunoprecipitation.
Transient Transfection and Luciferase Assay. For transfections, cardiomyocytes were cultured in 12-well tissue culture plates as described. Once cultures were incubated in medium 199 with 0.2% serum for 24 hours, cultures were either infected with AdUIIR as described or were just transfected. […] Cardiomyocyte cultures were harvested 24-72 hours post treatment (per sample) and luciferase activity was determined by luminometry (Model TD 20/20 Luminometer, Turner Designs, Sunnyvale, Calif.) using a commercially available kit (Luciferase Substrate, Promega, Madison, Wis.).

[3] = test system: ANF, SkA and MEF2 reporters; assay: UII-stimulated ANF, SkA and MEF2 luciferase reporter assay in cardiomyocytes; format: cell-based, rat; conditions: AdUIIR-infected cardiomyocytes; inhibitor 1 h prior to UII 100 nM; STO-609 250 ng/mL, SB203580 10 μM, U0126 10 μM, AKTi 5 μM
Text: as §1
Transient Transfection and Luciferase Assay.

ERK1/2 = assay: Western blot of AngII or Et-1 stimulated ERK1/2 phosphorylation in cardiomyocytes; format: cell-based, rat; conditions: AngII 100 nM or Et-1 10 nM for 10 min; STO-609 250 ng/mL
Protocol: (§2) Whole cell lysates were subjected to Western blotting to determine the relative change in phosphorylation of ERK1/2 (FIG. 7A) or PKD (FIG. 7B). Western Blot Analysis and Immunoprecipitations. […] Following treatment, cells were lysed, and the relative abundance of UIIR, active p38 and ERK1/2, and active PKD was determined with commercially-available antibodies (Alpha Diagnostic, and Cell Signaling Technologies, Inc., respectively). The antibody for CaMKI was obtained from T. Soderling (Vollum Institute, Oregon Health Sciences University, Portland Oreg.).

PKD [4] = assay: Western blot of AngII or Et-1 stimulated PKD phosphorylation in cardiomyocytes; format: cell-based, rat; conditions: AngII 100 nM or Et-1 10 nM for 10 min; STO-609 250 ng/mL
Protocol: as §2

PKC = conditions: cited from earlier work
PKA = conditions: cited from earlier work
PKD [5] = assay: Western blot of PKD phosphorylation (phospho-Ser744/748) in cardiomyocytes; format: cell-based, rat; conditions: AdUIIR-infected cardiomyocytes; UII with STO-609 for 2 or 5 min
Protocol: as §1
(§3) Western Blot Analysis and Immunoprecipitations. Cardiomyocytes were cultured in 100-mm dishes as described in the previous section. 24 h post-plating, cells were treated with UII and various pharmacological inhibitors as indicated. Following treatment, cells were lysed, and the relative abundance of UIIR, active p38 and ERK1/2, and active PKD was determined with commercially-available antibodies (Alpha Diagnostic, and Cell Signaling Technologies, Inc., respectively). The antibody for CaMKI was obtained from T. Soderling (Vollum Institute, Oregon Health Sciences University, Portland Oreg.).
UII activates PKD in a CaMKK dependent manner. A parallel pathway involving PKD phosphorylatea HDACs resulting in their 14-3-3-dependent translocation […] (19). […] Next, it was determined whether UII stimulation could activate PKD which would account for the UII-induced HDAC5 translocation […] possibly working in conjunction with CaMKI. To determine whether UII activates PKD, AdUIIR-infected cardiomyocyte cultures were treated with UII for various times up to 60 min, and whole cell lysates were collected and the phosphorylation status of PKD was measured by Western blot analysis by using an antibody that recognizes the active form of PKD (phospho-Ser744/748). […]

CaMKKa = CaMKKa (Rattus norvegicus, UniProt P97756); conditions: cited from earlier work
CaMKKa, sequence (P97756 whole entry): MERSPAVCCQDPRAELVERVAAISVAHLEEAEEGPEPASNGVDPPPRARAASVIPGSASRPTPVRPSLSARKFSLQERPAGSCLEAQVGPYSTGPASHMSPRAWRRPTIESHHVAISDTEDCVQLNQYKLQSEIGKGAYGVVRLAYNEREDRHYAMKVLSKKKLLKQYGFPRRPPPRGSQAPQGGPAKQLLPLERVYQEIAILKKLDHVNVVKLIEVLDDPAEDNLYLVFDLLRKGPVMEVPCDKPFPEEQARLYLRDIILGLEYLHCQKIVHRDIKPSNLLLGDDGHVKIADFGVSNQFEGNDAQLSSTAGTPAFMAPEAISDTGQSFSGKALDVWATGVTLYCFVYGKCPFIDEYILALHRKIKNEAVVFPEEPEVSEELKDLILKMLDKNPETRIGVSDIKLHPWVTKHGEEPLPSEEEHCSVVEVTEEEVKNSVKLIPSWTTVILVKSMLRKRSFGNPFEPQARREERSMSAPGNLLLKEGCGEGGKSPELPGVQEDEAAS

CaM-KIV = biological target: T1, CaM-KIV (Homo sapiens, UniProt Q16566); conditions: cited from earlier work
T1 sequence (Q16566 1-473): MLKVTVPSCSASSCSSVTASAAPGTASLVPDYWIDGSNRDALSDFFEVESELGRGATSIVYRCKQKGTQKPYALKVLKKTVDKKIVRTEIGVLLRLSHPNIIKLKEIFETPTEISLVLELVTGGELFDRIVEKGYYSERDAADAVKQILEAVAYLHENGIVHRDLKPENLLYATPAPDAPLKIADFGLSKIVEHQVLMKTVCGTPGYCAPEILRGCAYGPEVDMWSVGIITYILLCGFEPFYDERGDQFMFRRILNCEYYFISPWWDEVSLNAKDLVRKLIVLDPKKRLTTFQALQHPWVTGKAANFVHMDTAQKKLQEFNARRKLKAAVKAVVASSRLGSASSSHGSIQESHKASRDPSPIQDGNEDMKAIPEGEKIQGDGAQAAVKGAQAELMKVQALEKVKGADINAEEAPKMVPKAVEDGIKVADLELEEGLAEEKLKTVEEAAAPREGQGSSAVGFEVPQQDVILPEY

p42 MAP kinase = p42 MAP kinase (Homo sapiens, UniProt P28482); conditions: cited from earlier work
p42 MAP kinase, sequence (P28482 whole entry): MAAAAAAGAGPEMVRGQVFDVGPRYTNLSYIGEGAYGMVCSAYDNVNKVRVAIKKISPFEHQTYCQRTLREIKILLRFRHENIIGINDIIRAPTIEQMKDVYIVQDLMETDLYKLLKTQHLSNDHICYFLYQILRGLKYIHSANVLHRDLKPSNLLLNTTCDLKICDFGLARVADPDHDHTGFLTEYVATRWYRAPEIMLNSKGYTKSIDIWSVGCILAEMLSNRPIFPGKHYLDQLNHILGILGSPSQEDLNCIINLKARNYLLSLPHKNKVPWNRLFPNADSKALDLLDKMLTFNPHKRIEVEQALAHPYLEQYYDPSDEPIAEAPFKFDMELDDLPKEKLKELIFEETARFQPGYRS

CaMKI = assay: Western blot of CaMKI phosphorylation (phospho-Thr178) in cardiomyocytes; format: cell-based, rat; conditions: AdUIIR-infected cardiomyocytes; UII with STO-609 for 2 or 5 min
Protocol: as §1, §3
UII stimulation results in the activation of CaMKI. […] One of the major downstream effectors of CaMKK is CaMKI. In addition to calcium/calmodulin, CaMKI requires phosphorylation by CaMKK to be active. To determine whether UII activates CaMKI, AdUIIR-infected cardiomyocyte cultures were treated with UII for various times up to 60 min, and whole cell lysates were collected and the phosphorylation status of CaMKI was measured by Western blot analysis by using an antibody that recognizes the active form of CaMKI (phospho-Thr178). […] CaMKI remained phosphorylated and active through 60 min of UII stimulation. Thus, UII activates CaMKI in cardiomyocytes.

[6] = test system: ANF, BNP, αMHC and SkA mRNA; assay: Semi-quantitative RT-PCR of hypertrophy marker genes in cardiomyocytes; format: cell-based, rat; conditions: AdUIIR-infected cardiomyocytes; UII 100 nM, STO-609 250 ng/mL, 48 h
Protocol: as §1
Reverse Transcription and Semi-quantitative PCR—Cardiomyocytes were cultured in 100-mm dishes at a density of 1×10^5 cells/cm^2. 24 h post-plating, cells were treated as indicated. Following treatment, total RNA was isolated with TRIzol® reagent (Invitrogen) cDNA was synthesized using Super-Script™III (Invitrogen) per the manufacturer's instructions. Semi-quantitative PCR was then performed using gene-specific primers for UIIR, hypertrophy marker genes and glyceraldehyde-3-phosphate dehydrogenase (GAPDH) (Integrated DNA Technologies). Sequences of gene-specific primers were as follows: for UIIR, sense 5′-[…]-3′ (SEQ ID NO: 1) and antisense 5′-[…]-3′ (SEQ ID NO: 2); for ANF, sense 5′-[…]-3′ (SEQ ID NO: 3) and antisense 5′-[…]-3′ (SEQ ID NO: 4); for BNP sense, 5′-[…]-3′ (SEQ ID NO: 5) and anti-sense 5′-[…]-3′ (SEQ ID NO: 6); for αMHC sense, 5′-[…]-3′ (SEQ ID NO: 7) and antisense 5′-[…]-3′ (SEQ ID NO: 8); for SkA sense, 5′-[…]-3′ (SEQ ID NO: 9) and antisense 5′-[…]-3′ (SEQ ID NO: 10); and for GAPDH sense, 5′-[…]-3′ (SEQ ID NO: 11) and antisense 5′-[…]-3′ (SEQ ID NO: 12).

p38 and ERK1/2 = assay: Western blot of p38 and ERK1/2 phosphorylation in cardiomyocytes; format: cell-based, rat; conditions: AdUIIR-infected cardiomyocytes; UII with STO-609 for 5 min
Protocol: as §1, §3
UII-dependent activation of p38 and ERK1/2 requires CaMKK. MAP kinases play an important role in mediating intracellular signaling. They are involved in cellular processes such as hypertrophy (7-10, 53, 54). More interesting, cross talk has been reported between the CaMKs and the MAPKs in neurons (11). There are three distinct families of MAP kinases (ERKs, p38s, and JNKs)(55). […] Next, whether UII stimulation of the MAP kinases was dependent on CaMKK was determined. AdUIIR-infected cardiomyocyte cultures were treated with UII for various times up to 60 min, and the phosphorylation status of p38 and ERK MAPKs were measured by Western blot analysis using antibodies that detect the active (phosphorylated) forms of these kinases.

CaM-KI = CaM-KI (Homo sapiens, UniProt Q14012); conditions: cited from earlier work
CaM-KI, sequence (Q14012 whole entry, species assumed): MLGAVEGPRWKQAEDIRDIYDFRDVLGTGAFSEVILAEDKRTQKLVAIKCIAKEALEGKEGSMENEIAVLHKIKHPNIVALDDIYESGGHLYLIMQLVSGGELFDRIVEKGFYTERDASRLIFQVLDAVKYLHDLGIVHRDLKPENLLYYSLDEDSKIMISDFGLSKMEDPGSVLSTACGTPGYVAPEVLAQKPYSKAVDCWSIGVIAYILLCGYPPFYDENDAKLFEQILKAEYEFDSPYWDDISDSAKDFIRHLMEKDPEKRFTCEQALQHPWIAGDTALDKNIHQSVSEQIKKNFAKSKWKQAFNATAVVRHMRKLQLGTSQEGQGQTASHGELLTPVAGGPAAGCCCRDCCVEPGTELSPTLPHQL

Compound | UIIR mRNA expression (UIIR) | UIIR protein expression (UIIR) | effect of inhibitor on UII-induced association of HDAC5 with 14-3-3β [1] | effect of inhibitor on CaMKI activation of ANF, SkA and MEF2 reporter luciferase activity [2] | effect of inhibitor on UII activation of ANF, SkA and MEF2 reporter luciferase activity [3] | also measured
CNC[C@H](O)c1cccc(O)c1 [PE, phenylephrine] | up-regulated the UIIR messenger RNA | up-regulation of UIIR | – | – | – | –
C[S+]([O-])c1ccc(-c2nc(-c3ccncc3)c(-c3ccc(F)cc3)[nH]2)cc1 (stereo not drawn) [SB203580] | – | – | no effect | completely blocked | completely blocked | –
O=C(O)c1ccc2c3c1cccc3c(=O)n1c3ccccc3nc21 [STO-609, 7-H-Benz[de]benzimidazo[2,1-a]isoquinoline-7-one-3-carboxylic acid] | – | – | loss of UII-induced association of HDAC5 with 14-3-3β; also recorded: decreased association of HDAC5 with 14-3-3β | – | completely blocked; also recorded: UII was incapable of stimulating any of the reporters | effect of inhibitor on AngII and Et-1 activation of ERK1/2 (ERK1/2): CaMKK is required for AngII and Et-1 activation of ERK1/2 and PKD; effect of inhibitor on AngII and Et-1 activation of PKD (PKD [4]): CaMKK is required for AngII and Et-1 activation of ERK1/2 and PKD; IC50 for PKC (PKC): > 10 µg/mL; IC50 for PKA (PKA): > 10 µg/mL; effect of inhibitor on UII-dependent phosphorylation of PKD (PKD [5]): UII was unable to stimulate PKD; pIC50 (CaMKKa): 6.42; pIC50 (CaM-KIV): < 4.50; pIC50 (p42 MAP kinase): < 4.50; effect of inhibitor on UII-dependent activation (phosphorylation) of CaMKI (CaMKI): UII was unable to stimulate CaMKI; also recorded: inhibited; effect of inhibitor on UII-stimulated hypertrophy marker gene mRNA expression (ANF, BNP, αMHC, SkA) [6]: UII was unable to stimulate hypertrophy marker gene expression over control; also recorded: UII was unable to stimulate the expression of ANF, BNP, αMHC or SkA; effect of inhibitor on UII-dependent phosphorylation of p38 and ERK1/2 (p38 and ERK1/2): UII was unable to stimulate p38 or ERK1/2; pIC50 (CaM-KI): < 4.50
N#CC(=C(/N)Sc1ccccc1N)/C(C#N)=C(\N)Sc1ccccc1N [U0126] | – | – | loss of UII-induced association of HDAC5 with 14-3-3β; also recorded: reduced UII-dependent association with 14-3-3β | completely blocked | completely blocked | –
angiotensin II (DRVYIHPF; Angiotensin-2; UniProt P01019 25-32, looked up) [AngII, humoral hypertrophic agonist acting on the Gq-coupled angiotensin II receptor] | up-regulated the UIIR messenger RNA | up-regulation of UIIR | – | – | – | –
